SMILES strings stand for the structures.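 Five concentrations, 48 hours, 96-well plates. GI50: concentration for 50% inhibition of growth.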 Calls of active or inactive are those of the source. No stated cut-off is given here; in the data, active = GI50 up to about 1.1 µM and inactive = higher.

What all share (assay): NCI-60 cell line screen, 48 h
Test [1] deals with OVCAR-8.
Test [2] concerns SK-MEL-2.
Test [3] has as its system UACC-257.
The subject of test [4] is OVCAR-3.
Test [5] concerns SF-295.
For test [6], the system named is RPMI-8226.
The subject of test [7] is HCT-116.
Test [8] deals with UO-31.
Test [9] relates to SF-268.
Test [10] has as its system OVCAR-5.
Test [11] relates to SK-MEL-28.
Test [12] has as its system SW-620.
The subject of test [13] is NCI-H23.
In test [14] the test system is SNB-19.
Test [15] deals with UACC-62.
Test [16] has as its system U-251.
Test [17] has as its system A549.
Test [18] concerns NCI-H460.
The test system of test [19] is SR.
Test [20] relates to HCT-15.

`C=CCN1C(N)=C(C(N)=O)S/C1=C1/SC(=S)N(c2ccc(C)cc2)C1=O`: the GI50 in test [1] was > 100 µM (inactive); in test [2], > 100 µM (inactive); in test [3] it was > 100 µM (inactive); in [4] it was > 100 µM (inactive); in [5], 49.8 µM (inactive); in test [6], > 100 µM (inactive). Further, the GI50 in test [7] was > 100 µM (inactive); in test [8], > 100 µM (inactive); in [9], > 100 µM (inactive); in test [10], 5.66 µM (inactive); in [11], > 100 µM (inactive); in test [12], > 100 µM (inactive). For the same compound, the GI50 was 65.3 µM (inactive) in test [13]; > 100 µM (inactive) in test [14]; > 100 µM (inactive) in test [15]; > 100 µM (inactive) in [16]; > 100 µM (inactive) in [17]; > 100 µM (inactive) in test [18]. Further, in test [19], the GI50 was > 100 µM (inactive).
For the compound `COP(=O)(OC)C(N)CCSC` (centres undefined), the GI50 in test [1], in [2], in test [3], in test [4], in test [5] and in [6] was > 100 µM (inactive) in each case. In addition, the GI50 in [7], in test [8], in test [9], in [10], in test [11] and in test [12] was > 100 µM (inactive) in each case. Moreover, the GI50 in [13], in test [14], in test [15], in test [16], in test [17] and in test [18] was > 100 µM (inactive) in each case. Besides, the GI50 in [20] is more than 100 µM; in [19] it was > 100 µM (inactive).
For `O=C(c1ccc(Cl)cc1)N1CCN=C1c1cc2ccccc2c2ccccc12`, the GI50 in test [1] was 17.3 µM (inactive); in test [2], 15.6 µM (inactive); in [3] it was 17.5 µM (inactive); in test [4], 17.6 µM (inactive); in test [5] it was 16.6 µM (inactive); in [6] it was 19.8 µM (inactive). Moreover, the GI50 was 14.9 µM (inactive) in test [7]; 16.9 µM (inactive) in [8]; 16.7 µM (inactive) in test [9]; 19.8 µM (inactive) in test [10]; 15.5 µM (inactive) in [11]; 17.3 µM (inactive) in [12]. Also, the GI50 is 17.6 µM (inactive) in test [13]; 16.4 µM (inactive) in test [14]; 14.5 µM (inactive) in test [15]; 16.3 µM (inactive) in test [16]; 15.9 µM (inactive) in test [17]; 11.5 µM (inactive) in test [18]. The GI50 in test [20] is 16.6 µM; in [19], 22.6 µM (inactive).
For `CCCn1c(CN(Cc2nc3ccccc3n2CCC)Cc2nc3ccccc3n2CCC)nc2ccccc21`, the GI50 is 2.25 µM (inactive) in test [1]; 5.69 µM (inactive) in [2]; 7.36 µM (inactive) in test [3]; 3.37 µM (inactive) in test [4]; 8.55 µM (inactive) in [5]; 2.04 µM (inactive) in test [6]. Also, the GI50 in test [7] was 1.74 µM (inactive); in [8] it was 2.21 µM (inactive); in [9], 3.99 µM (inactive); in [10], 6.07 µM (inactive); in test [11] it was 10.7 µM (inactive); in test [12] it was 5.11 µM (inactive). The GI50 in [13] was 5.11 µM (inactive); in test [14], 7.01 µM (inactive); in [15] it was 3.7 µM (inactive); in test [16], 3.97 µM (inactive); in test [17] it was 2.59 µM (inactive); in test [18], 3.27 µM (inactive). Also, the GI50 in [20] is 4.39 µM; in [19], 2.58 µM (inactive).
For `COc1cc2nc(-c3cccc(N(C)C)c3)cc(O)c2cc1OC`, the GI50 was 6.03 µM (inactive) in [1]; 5.28 µM (inactive) in test [3]; 1.52 µM (inactive) in test [4]; 2.58 µM (inactive) in [5]; 3.65 µM (inactive) in test [6]; 4.8 µM (inactive) in [7]. Further, the GI50 was 5.65 µM (inactive) in [8]; 16.6 µM (inactive) in [9]; 5.18 µM (inactive) in [10]; 4.09 µM (inactive) in test [12]; 3.54 µM (inactive) in [13]; 4.98 µM (inactive) in test [14]. For the same compound, the GI50 was 3.44 µM (inactive) in [15]; 4.06 µM (inactive) in test [17]; 3.94 µM (inactive) in test [18]; 2.99 µM in [20]; 5.14 µM (inactive) in test [19].
With `COc1cc(Nc2c3ccccc3nc3ccccc23)ccc1NS(C)(=O)=O`, the GI50 in test [1] is 4.5 µM (inactive); in [2], 7.53 µM (inactive); in test [3] it was 11.9 µM (inactive); in test [4], 6.53 µM (inactive); in test [5] it was 3.84 µM (inactive); in test [6] it was 2.83 µM (inactive). In addition, the GI50 in test [7] was 3.27 µM (inactive); in test [8] it was 4.41 µM (inactive); in [9], 4.39 µM (inactive); in [10], 11 µM (inactive); in test [11] it was 7.52 µM (inactive); in test [12], 2.61 µM (inactive). Besides, the GI50 in [13] is > 10 µM (inactive); in test [14], 5.73 µM (inactive); in [15] it was 6.61 µM (inactive); in test [16], 4.59 µM (inactive); in test [17], 2.42 µM (inactive); in test [18], 2.64 µM (inactive). Moreover, the GI50 in test [19] was 2.72 µM (inactive).
Turning to `CS/C(=N\S(=O)(=O)c1ccc(Cl)cc1)NCCN/C(=N/S(=O)(=O)c1ccc(Cl)cc1)SC`, the GI50 in [1] was 19.9 µM (inactive); in test [2], 30.1 µM (inactive); in [3], > 100 µM (inactive); in test [4], 32 µM (inactive); in test [5], 61.2 µM (inactive); in test [6] it was > 100 µM (inactive). In addition, the GI50 in [7] was > 100 µM (inactive); in [8], > 100 µM (inactive); in test [9] it was 21.3 µM (inactive); in test [10] it was > 100 µM (inactive); in test [11], > 100 µM (inactive); in test [12] it was > 100 µM (inactive). Also, the GI50 in test [13] was 48 µM (inactive); in test [14], 35.7 µM (inactive); in [15], > 100 µM (inactive); in [16], 18 µM (inactive); in test [18], > 100 µM (inactive); in test [20] it was more than 100 µM. The GI50 in test [19] is > 100 µM (inactive).
For `CC1(C)CCCC2(C)[C@@H]1CC[C@]13C[C@](C)(CC[C@@H]21)[C@@H]3CO` (some centres undefined), the GI50 in [3], in test [4], in [5], in test [6], in test [7] and in [8] was > 100 µM (inactive) throughout. Moreover, the GI50 in [9], in test [10], in test [11], in [12], in test [13] and in test [14] was > 100 µM (inactive) each time. Further, the GI50 in test [15] is > 100 µM (inactive); in test [16] it was > 100 µM (inactive); in [17], > 100 µM (inactive); in test [18], > 100 µM (inactive); in [20] it was more than 100 µM; in test [19], > 10 µM (inactive).
Take `CC(C)(C)CI`: the GI50 in test [1] was > 10 µM (inactive); in [2], 19.8 µM (inactive); in [3] it was 21.2 µM (inactive); in [4], 19.1 µM (inactive); in test [5], 18.5 µM (inactive); in [7], 18.5 µM (inactive). The GI50 in test [8] was > 10 µM (inactive); in test [9], 33.7 µM (inactive); in test [10], 32.2 µM (inactive); in [11], 50.6 µM (inactive); in test [12], 18.1 µM (inactive); in test [13] it was 55.6 µM (inactive). For the same compound, the GI50 was 23 µM (inactive) in [14]; 29.9 µM (inactive) in test [15]; 26.2 µM (inactive) in test [16]; 25.6 µM (inactive) in [17]; 27.9 µM (inactive) in test [18]; 33 µM in test [20]. Moreover, the GI50 in [19] is 25.4 µM (inactive).
In the case of `O=C(O)c1ccc([Se][Se]c2ccc(C(=O)O)cc2)cc1`, the GI50 in test [1] is 28.6 µM (inactive); in test [2], 27.4 µM (inactive); in test [4] it was 22.5 µM (inactive); in test [5], 23.6 µM (inactive); in test [6] it was 21.2 µM (inactive); in test [7], 18.1 µM (inactive). Moreover, the GI50 in [8] was 29.9 µM (inactive); in test [9], 33.9 µM (inactive); in [10], 23.5 µM (inactive); in test [11] it was 20.7 µM (inactive); in test [12], 32.4 µM (inactive); in test [13] it was 19.3 µM (inactive). The GI50 was 34.1 µM (inactive) in test [14]; 19.3 µM (inactive) in test [15]; 21.1 µM (inactive) in [16]; 25.8 µM (inactive) in test [17]; 6.65 µM (inactive) in test [18]; 35.6 µM in test [20]. Further, in test [19], the GI50 is > 10 µM (inactive).
With `CC(C)OP(=O)(OC(C)C)/C(=N/Nc1ccc([N+](=O)[O-])cc1)NCCO`, the GI50 in test [1], in test [2], in test [3], in test [4], in test [6] and in [7] was > 100 µM (inactive) throughout. Further, the GI50 in [8], in [9], in test [10], in [11], in test [12] and in [13] was > 100 µM (inactive) each time. Also, the GI50 in test [14] is > 100 µM (inactive); in [15] it was 26.2 µM (inactive); in [16], > 100 µM (inactive); in test [17] it was 74.8 µM (inactive); in [18], > 100 µM (inactive); in [20], 72.8 µM. For the same compound, the GI50 in [19] was > 100 µM (inactive).

These data come from ChEMBL document CHEMBL1201862, “PubChem BioAssay data set” (2004).
